Measured values published in patent publication US8952024B2, “Herbicidal pyrimidone derivatives” (E I du Pont de Nemours and Company, priority 2009, dated 2015).

Legend:
Assay type in all cases: in vivo
[1] = tested on: barnyardgrass (Echinochloa crus-galli); test: Test A pre-/postemergence plant response
How it was run: (§1)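 Visual injury rating on a 0–100 scale (0 = no effect, 100 = complete control) was made versus untreated controls after about ten days in the greenhouse. Compounds, formulated in a non-phytotoxic solvent mix containing surfactant, were sprayed preemergence onto loam/sand soil and postemergence onto one- to two-leaf plants.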

[2] = tested on: pigweed (Amaranthus retroflexus); test: Test A pre-/postemergence plant response
How it was run: as §1

[3] = tested on: wheat (Triticum aestivum); test: Test B pre-/postemergence plant response
How it was run: (§2)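 Greenhouse herbicide screen. Pre- and postemergence (1- to 4-leaf) spray of compound in solvent/surfactant mixture; loam–sand soil for pre, peat/vermiculite medium for post. Visual control rating 0–100 at 13 to 15 days after treatment.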

[4] = tested on: goosegrass (Eleusine indica); test: Test B pre-/postemergence plant response
How it was run: as §2

[5] = tested on: velvetleaf (Abutilon theophrasti); test: Test B pre-/postemergence plant response
How it was run: as §2

[6] = tested on: downy bromegrass (Bromus tectorum); test: Test B pre-/postemergence plant response
How it was run: as §2

[7] = tested on: large crabgrass (Digitaria sanguinalis); test: Test B pre-/postemergence plant response
How it was run: as §2

[8] = tested on: Italian ryegrass (Lolium multiflorum); test: Test B pre-/postemergence plant response
How it was run: as §2

[9] = tested on: woolly cupgrass (Eriochloa villosa); test: Test B pre-/postemergence plant response
How it was run: as §2

[10] = tested on: morningglory (Ipomoea coccinea); test: Test B pre-/postemergence plant response
How it was run: as §2

[11] = tested on: yellow nutsedge (Cyperus esculentus); test: Test B pre-/postemergence plant response
How it was run: as §2

[12] = tested on: blackgrass (Alopecurus myosuroides); test: Test B pre-/postemergence plant response
How it was run: as §2

[13] = tested on: Surinam grass (Brachiaria decumbens); test: Test B pre-/postemergence plant response
How it was run: as §2

[14] = Postemergence, 125 g ai/ha, visual injury, 0 to 100 scale (0 no effect, 100 complete control), approx. ten days
[15] = Postemergence, 500 g ai/ha, 0 to 100 scale, 0 = no effect, 100 = complete control, approx. ten days
[16] = Preemergence, 125 g ai/ha, 0 to 100 scale, 0 = no effect, 100 = complete control
[17] = Preemergence, 500 g ai/ha, visual injury, 0 to 100 scale (0 no effect, 100 complete control), approx. ten days
[18] = 31 g ai/ha, postemergence, scale 0 to 100, 0 is no effect, 100 is complete control
[19] = 250 g ai/ha, Preemergence, 0 to 100 scale
[20] = Postemergence, 62 g ai/ha, scale 0 (no effect) to 100 (complete control), 13 to 15 days
[21] = Postemergence, 125 g ai/ha, visual rating after 13 to 15 days, scale 0 (no effect) to 100 (complete control)
[22] = Postemergence, 250 g ai/ha, scale 0 to 100 (0 no effect, 100 complete control)
[23] = Preemergence, 31 g ai/ha, scale 0 to 100 (0 no effect, 100 complete control)
[24] = Preemergence, 125 g ai/ha, 0 to 100 scale
[25] = Preemergence, 62 g ai/ha, scale 0 to 100, 0 no effect, 100 complete control

Structure (SMILES): CCCn1c(-c2ccccc2)ncc(C(=O)C2=C(O)CCCC2=O)c1=O [Compound 50]
- Barnyardgrass plant response rating [1, 14]: 90
- Plant response rating, Barnyardgrass [1, 15]: 100
- Plant response rating, Barnyardgrass [1, 16]: 50
- Plant response rating, Barnyardgrass [1, 17]: 90
- Pigweed plant response rating [2, 14]: 100
- Plant response rating, Pigweed [2, 15]: 100
- Plant response rating, Pigweed [2, 16]: 90
- Plant response rating, Pigweed [2, 17]: 100
- Plant response rating, Wheat [3, 18]: 0
- Plant response rating, Wheat [3, 19]: 0
- Plant response rating, Wheat [3, 20]: 5
- Plant response rating, Wheat [3, 21]: 5
- Plant response rating, Wheat [3, 22]: 15
- Plant response rating, Wheat [3, 23]: 0
- Wheat plant response rating [3, 24]: 0
- Plant response rating, Goosegrass [4, 18]: 75
- Plant response rating, Goosegrass [4, 19]: 100
- Plant response rating, Goosegrass [4, 20]: 80
- Plant response rating, Goosegrass [4, 21]: 90
- Plant response rating, Goosegrass [4, 22]: 90
- Plant response rating, Goosegrass [4, 23]: 95
- Goosegrass plant response rating [4, 24]: 100
- Plant response rating, Velvetleaf [5, 18]: 90
- Plant response rating, Velvetleaf [5, 19]: 100
- Plant response rating, Velvetleaf [5, 20]: 98
- Plant response rating, Velvetleaf [5, 21]: 98
- Plant response rating, Velvetleaf [5, 22]: 100
- Plant response rating, Velvetleaf [5, 23]: 85
- Velvetleaf plant response rating [5, 24]: 100
- Plant response rating, Bromegrass, Downy [6, 18]: 0
- Plant response rating, Bromegrass, Downy [6, 19]: 0
- Plant response rating, Bromegrass, Downy [6, 20]: 5
- Plant response rating, Bromegrass, Downy [6, 21]: 20
- Plant response rating, Bromegrass, Downy [6, 22]: 20
- Plant response rating, Bromegrass, Downy [6, 23]: 0
- Plant response rating, Bromegrass, Downy [6, 25]: 0
- Bromegrass, Downy plant response rating [6, 24]: 0
- Plant response rating, Crabgrass, Large [7, 18]: 75
- Plant response rating, Crabgrass, Large [7, 19]: 100
- Plant response rating, Crabgrass, Large [7, 20]: 85
- Plant response rating, Crabgrass, Large [7, 21]: 95
- Plant response rating, Crabgrass, Large [7, 22]: 98
- Plant response rating, Crabgrass, Large [7, 23]: 98
- Plant response rating, Crabgrass, Large [7, 25]: 100
- Crabgrass, Large plant response rating [7, 24]: 100
- Plant response rating, Ryegrass, Italian [8, 18]: 0
- Plant response rating, Ryegrass, Italian [8, 19]: 0
- Plant response rating, Ryegrass, Italian [8, 20]: 0
- Plant response rating, Ryegrass, Italian [8, 21]: 0
- Plant response rating, Ryegrass, Italian [8, 22]: 0
- Plant response rating, Ryegrass, Italian [8, 23]: 0
- Ryegrass, Italian plant response rating [8, 24]: 0
- Plant response rating, Cupgrass, Woolly [9, 18]: 70
- Plant response rating, Cupgrass, Woolly [9, 19]: 70
- Plant response rating, Cupgrass, Woolly [9, 20]: 75
- Plant response rating, Cupgrass, Woolly [9, 21]: 80
- Plant response rating, Cupgrass, Woolly [9, 22]: 85
- Plant response rating, Cupgrass, Woolly [9, 23]: 0
- Plant response rating, Cupgrass, Woolly [9, 25]: 5
- Cupgrass, Woolly plant response rating [9, 24]: 15
- Plant response rating, Morningglory [10, 18]: 10
- Plant response rating, Morningglory [10, 19]: 55
- Plant response rating, Morningglory [10, 20]: 25
- Plant response rating, Morningglory [10, 21]: 70
- Plant response rating, Morningglory [10, 22]: 80
- Plant response rating, Morningglory [10, 23]: 0
- Plant response rating, Morningglory [10, 25]: 0
- Plant response rating, Nutsedge, Yellow [11, 18]: 70
- Plant response rating, Nutsedge, Yellow [11, 19]: 90
- Plant response rating, Nutsedge, Yellow [11, 20]: 70
- Plant response rating, Nutsedge, Yellow [11, 21]: 70
- Plant response rating, Nutsedge, Yellow [11, 22]: 75
- Plant response rating, Nutsedge, Yellow [11, 23]: 80
- Nutsedge, Yellow plant response rating [11, 24]: 90
- Plant response rating, Blackgrass [12, 18]: 5
- Plant response rating, Blackgrass [12, 19]: 5
- Plant response rating, Blackgrass [12, 20]: 5
- Plant response rating, Blackgrass [12, 21]: 5
- Plant response rating, Blackgrass [12, 22]: 15
- Plant response rating, Blackgrass [12, 23]: 0
- Plant response rating, Blackgrass [12, 25]: 0
- Blackgrass plant response rating [12, 24]: 0
- Plant response rating, Surinam Grass [13, 18]: 65
- Plant response rating, Surinam Grass [13, 19]: 100
- Plant response rating, Surinam Grass [13, 20]: 75
- Plant response rating, Surinam Grass [13, 21]: 80
- Plant response rating, Surinam Grass [13, 22]: 85
- Plant response rating, Surinam Grass [13, 23]: 75
- Surinam Grass plant response rating [13, 24]: 98
